SMILES strings stand for the structures. Where two headings read alike, the source gives them in different places.

Holding throughout (assay type): in vivo
For assay [1], the system named is Beet Armyworm (Spodoptera exigua, LAPHEG). Nature of the assay: Bioassays on Beet Armyworm (BAW), 128-well diet tray assay. Particulars: Spodoptera exigua. In short, it runs like this: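 Test molecule was dissolved in 90:10 acetone-water and applied at 50 μg/cm^2 onto artificial diet in eight wells, then dried. Second instar larvae, one to five per well, were added, and trays were kept vented at 25° C. with a 14:10 photoperiod for five to seven days before mortality was recorded.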

For assay [2], the system named is Cabbage Looper (Trichoplusia ni, TRIPNI). The assay can be described thus: Bioassays on Cabbage Looper (CL), 128-well diet tray assay. Particulars: Trichoplusia ni. In short, it runs like this:
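Second-instar larvae (1–5 per well) placed on artificial diet surface-treated with 50 μg/cm^2 test molecule applied in 90:10 acetone-water and dried. Held at 25° C., 14:10 light-dark, for five to seven days. Percent mortality scored per well and averaged over eight wells.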

In assay [3] the test system is Yellow Fever Mosquito (Aedes aegypti, AEDSAE). Particulars: for YFM rating: Table ABC / ABC-DP rating. In short, it runs like this: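 Larvae ~1 day old, in liver powder/water; compound from 4000 ppm DMSO stock diluted with water/acetone (90:10); 6 reps; lidded, RT, 3 d; mortality scored per well, rated.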
Where [4] appears, read: Beet Armyworm, Table ABC / ABC-DP rating, read-out: BAW rating.
The mark [5] stands for this setting: Cabbage Looper, Table ABC / ABC-DP rating, read-out: CL rating.
Setting [6] is: Beet Armyworm, rating class, read-out: BAW.
[7] abbreviates: Cabbage Looper, rating class, read-out: CL.
The mark [8] stands for this setting: Yellow Fever Mosquito, rating class.

`O=C(NNc1ccc(F)cc1F)c1cc(NC(=O)[C@H]2[C@H](c3cc(Cl)cc(Cl)c3)C2(Cl)Cl)ccc1Cl` (relative stereo) [F2559, trans-2,2-Dichloro-N-(4-chloro-3-(2-(2,4-difluorophenyl)hydrazine-1-carbonyl)phenyl)-3-(3,5-dichlorophenyl)cyclopropane-1-carboxamide]: the pest or weed control at 50 µg/cm2 in assay [1] (setting [4]) and in assay [2] (setting [5]) was 50 to 100% each time. The YFM rating result in assay [3] (Yellow Fever Mosquito) is “B (More than 0 – Less than 80)”.
Consider `O=C(Nc1ccc(F)c(NC(=O)C2CCCO2)c1F)c1cc(NC(=O)[C@H]2[C@H](c3cc(C(F)(F)F)cc(C(F)(F)F)c3)C2(Cl)Cl)ccc1Cl` (relative stereo) [F1805, trans-N-(3-(5-(3-(3,5-bis(Trifluoromethyl)phenyl)-2,2-dichlorocyclopropane-1-carboxamido)-2-chlorobenzamido)-2,6-difluorophenyl)tetrahydrofuran-2-carboxamide], for which the pest or weed control at 50 µg/cm2 in assay [1] (setting [4]) and in assay [2] (setting [5]) was 50 to 100% in each case. The YFM rating entry in assay [3] (Yellow Fever Mosquito) was “A (80–100)”.
Take `CC(=O)Nc1cc(NC(=O)c2cc(NC(=O)[C@H]3[C@H](c4ccc(F)c(C(F)(F)F)c4)C3(Cl)Cl)ccc2Cl)c(F)c(F)c1F` [F1743, N-(5-Acetamido-2,3,4-trifluorophenyl)-2-chloro-5-((1R,3R)-2,2-dichloro-3-(4-fluoro-3-(trifluoromethyl)phenyl)cyclopropane-1-carboxamido)benzamide]: the pest or weed control at 50 µg/cm2 in assay [1] (setting [6]) and in assay [2] (setting [7]) was 50 to 100% throughout. Further, in assay [3] (setting [8]), the YFM entry is on record as “A (80–100)”.
With `CCN(C(=O)OC(C)(C)C)c1c(F)ccc(NC(=O)c2cc(NC(=O)[C@H]3[C@H](c4ccc(F)c(C(F)(F)F)c4)C3(Cl)Cl)ccc2Cl)c1F` [F1761, tert-Butyl (3-(2-chloro-5-((1R,3R)-2,2-dichloro-3-(4-fluoro-3-(trifluoromethyl)phenyl)cyclopropane-1-carboxamido)benzamido)-2,6-difluorophenyl)(ethyl)carbamate], the pest or weed control at 50 µg/cm2 in assay [1] (setting [6]) and in assay [2] (setting [7]) was 50 to 100% each time. Further, the YFM entry in assay [3] (setting [8]) was “A (80–100)”.
Take `O=C(NCC(F)(F)F)c1cc(NC(=O)[C@H]2[C@H](c3cc(C(F)(F)F)ccc3Cl)C2(Cl)Cl)ccc1Cl` (relative stereo) [F2001, trans-2-Chloro-5-(2,2-dichloro-3-(2-chloro-5-(trifluoromethyl)phenyl)-cyclopropane-1-carboxamido)-N-(2,2,2-trifluoroethyl)benzamide]: the pest or weed control at 50 µg/cm2 in assay [1] (setting [4]) and in assay [2] (setting [5]) was 50 to 100% each time. Moreover, the YFM rating entry in assay [3] (Yellow Fever Mosquito) was “A (80–100)”.
For `O=C(NNCc1ccc(F)cc1F)c1cc(NC(=O)[C@H]2[C@H](c3cc(Cl)cc(Cl)c3)C2(Cl)Cl)ccc1Cl` (relative stereo) [F2547, trans-2,2-dichloro-N-(4-chloro-3-(2-(2,4-difluorobenzyl)hydrazine-1-carbonyl)phenyl)-3-(3,5-dichlorophenyl)cyclopropane-1-carboxamide], the pest or weed control at 50 µg/cm2 in assay [1] (setting [4]) and in assay [2] (setting [5]) was 50 to 100% each time. In addition, the YFM rating result in assay [3] (Yellow Fever Mosquito) is recorded as “A (80–100)”.
With `Nc1ccc(NC(=O)c2cc(NC(=O)[C@H]3[C@H](c4ccc(F)c(Cl)c4)C3(Cl)Cl)ccc2Cl)cc1C(F)(F)F` (relative stereo) [F1390, trans-N-(4-Amino-3-(trifluoromethyl)phenyl)-2-chloro-5-(2,2-dichloro-3-(3-chloro-4-fluorophenyl)cyclopropane-1-carboxamido)benzamide], the pest or weed control at 50 µg/cm2 in assay [1] (Table ABC: Biological Results, species BAW, read-out: BAW) lay in the range of 50 to 100%; in assay [2] (Table ABC: Biological Results, species CL, read-out: CL), 50 to 100%. In assay [3] (Table ABC: Biological Results, species YFM), the YFM result is “A (80–100)”.

Source of the values: US20250228239A1, “MOLECULES HAVING PESTICIDAL UTILITY, AND INTERMEDIATES, COMPOSITIONS, AND PROCESSES, RELATED THERETO” (priority 2024, published 2025).
